Laboratory results: article PMC6039096 (Science translational medicine, 2017)

Columns and labels:
[1] = target: T1, EZH1 (Homo sapiens, UniProt Q92800); assay: biochemical inhibition assay with recombinant EZH1
T1 sequence (Q92800 1-747): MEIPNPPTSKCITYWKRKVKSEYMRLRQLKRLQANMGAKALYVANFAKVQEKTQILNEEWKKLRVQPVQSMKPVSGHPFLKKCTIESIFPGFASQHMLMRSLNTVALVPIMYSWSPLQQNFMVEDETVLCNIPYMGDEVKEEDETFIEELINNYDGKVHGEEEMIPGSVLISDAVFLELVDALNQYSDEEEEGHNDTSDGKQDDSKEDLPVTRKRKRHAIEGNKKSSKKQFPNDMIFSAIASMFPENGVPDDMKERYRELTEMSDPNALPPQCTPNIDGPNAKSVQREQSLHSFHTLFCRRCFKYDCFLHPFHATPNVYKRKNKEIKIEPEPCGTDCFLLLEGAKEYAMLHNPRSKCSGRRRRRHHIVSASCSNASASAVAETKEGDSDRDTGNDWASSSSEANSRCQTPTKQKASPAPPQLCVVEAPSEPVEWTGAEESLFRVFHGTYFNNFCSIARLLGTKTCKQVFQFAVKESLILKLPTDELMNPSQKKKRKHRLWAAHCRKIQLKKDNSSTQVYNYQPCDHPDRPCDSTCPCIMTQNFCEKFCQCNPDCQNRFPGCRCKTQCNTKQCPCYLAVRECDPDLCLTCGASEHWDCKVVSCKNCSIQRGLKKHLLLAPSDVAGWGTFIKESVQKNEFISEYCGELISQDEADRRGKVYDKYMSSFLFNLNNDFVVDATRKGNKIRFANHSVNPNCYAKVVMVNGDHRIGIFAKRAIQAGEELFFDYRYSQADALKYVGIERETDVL

[2] = target: EZH2 (Homo sapiens, UniProt Q15910); assay: biochemical inhibition assay with recombinant EZH2
EZH2, sequence (Q15910 whole entry): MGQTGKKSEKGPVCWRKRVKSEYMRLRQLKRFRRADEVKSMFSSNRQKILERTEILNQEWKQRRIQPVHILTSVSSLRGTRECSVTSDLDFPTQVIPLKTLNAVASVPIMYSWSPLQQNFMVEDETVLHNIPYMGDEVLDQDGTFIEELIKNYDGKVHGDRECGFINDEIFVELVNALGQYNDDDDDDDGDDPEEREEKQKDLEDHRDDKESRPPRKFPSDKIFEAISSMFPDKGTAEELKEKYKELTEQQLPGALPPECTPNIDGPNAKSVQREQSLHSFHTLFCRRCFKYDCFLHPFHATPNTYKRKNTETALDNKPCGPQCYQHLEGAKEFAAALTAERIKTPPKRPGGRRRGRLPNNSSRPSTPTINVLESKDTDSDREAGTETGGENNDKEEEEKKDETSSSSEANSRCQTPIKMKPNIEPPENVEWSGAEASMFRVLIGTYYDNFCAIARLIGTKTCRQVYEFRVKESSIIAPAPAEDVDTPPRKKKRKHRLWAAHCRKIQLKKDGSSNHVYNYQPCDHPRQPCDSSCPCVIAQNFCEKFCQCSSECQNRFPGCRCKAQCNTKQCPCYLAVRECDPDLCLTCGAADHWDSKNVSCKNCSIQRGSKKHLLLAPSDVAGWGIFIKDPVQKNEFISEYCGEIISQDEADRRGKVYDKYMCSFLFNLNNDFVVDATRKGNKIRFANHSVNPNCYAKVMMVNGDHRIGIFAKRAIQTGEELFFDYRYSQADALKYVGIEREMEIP

Ki [1]: 26.5 nM
Ki [2]: 2.2 nM
SMILES: CCCc1cc(C)[nH]c(=O)c1CNC(=O)c1cc(-c2ccc(N3CCN(C)CC3)nc2)nc2c1cnn2C(C)C [JQ-EZ-05]
